Assay results: patent US9974870B2, “Compositions and methods for treatment and imaging using nanoparticles” (Washington University, priority 2014, dated 2018)
Read-outs that look alike come from different tables or passages of the source. Non-standard residues stand in square brackets, D forms with d. Residues, ends and D or L forms follow the SMILES beside them. Primed or numbered codes have the meaning given here. *: point of attachment. DOTA = O=C(O)CN1CCN(CC(=O)O)CCN(CC(=O)*)CCN(CC(=O)O)CC1; DTPA′ = chelating agent complexing 111In or 64Cu; Tyr(3-I) = N[C@@H](Cc1ccc(O)c(I)c1)C(=O)O; Orn = NCCC[C@H](N)C(=O)O; Ahx = NCCCCCC(=O)O

Key:
caspase-3 = target: T1, caspase-3 (Homo sapiens, UniProt P42574); assay: Caspase-3 mediated hydrolysis, enzyme kinetics by radio-HPLC; type: biochemical; settings: caspase-3 290 pM, 37° C., pH 7.4
T1 construct: purchased Cal Biochem
T1 sequence (P42574 29-175 limits assumed): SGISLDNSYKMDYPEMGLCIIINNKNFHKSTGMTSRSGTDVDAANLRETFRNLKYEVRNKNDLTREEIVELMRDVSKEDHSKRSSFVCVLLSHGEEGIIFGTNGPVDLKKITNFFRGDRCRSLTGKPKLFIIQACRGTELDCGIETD
T1 sequence (P42574 176-277 limits assumed): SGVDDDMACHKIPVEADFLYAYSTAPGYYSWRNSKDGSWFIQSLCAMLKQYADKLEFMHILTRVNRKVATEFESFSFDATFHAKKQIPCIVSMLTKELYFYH
Method: However, the dimer readily converts back to single molecules under the high reducing conditions such as used to prepare the ^99mTc chelate. Kinetic analysis of caspase-3 activation with [^125I]LS370 using a radionuclide detector (radio-high-performance liquid chromatography) gave a KM and kcat of 15±3 1 μM and […], respectively.
[^125I]LS370 was dissolved in caspase buffer {100 mM NaCl, 50 mM 4-(2-hydroxyethyl)-1-piperazineethanesulfonic acid, 10 mM DTT, 1 mM ethylenediaminetetraacetic acid, 10% glycerol, and 0.1% 3-[(3-cholamidopropyl) dimethylammonio]-1-propanesulfonate, pH 7.4} at concentrations varying from 2.5 to 20 μM. […] These solutions were allowed to react at 37° C. for 180 min and were sampled every 30 min. Substrate hydrolysis was monitored by radio-high-performance liquid chromatography (Vydac, C-18, 4.6×250 mm, 1 ml/m, A=H2O, 0.1% TFA, B=ACN, 0.1% TFA; 10-90% B, 30 min, linear gradient) of these time point samples. Comparison to a standard caspase-3 substrate (Ac-DEVD-pNA) and calculation of the enzyme kinetic parameters were carried out as previously described.

MMP9 [1] = target: T2, MMP9 (Homo sapiens, UniProt P14780); assay: In vitro MMP9 experiment with ^64Cu-labeled peptide-functionalized gold NPs; type: biochemical
T2 sequence (P14780 94-707, species assumed): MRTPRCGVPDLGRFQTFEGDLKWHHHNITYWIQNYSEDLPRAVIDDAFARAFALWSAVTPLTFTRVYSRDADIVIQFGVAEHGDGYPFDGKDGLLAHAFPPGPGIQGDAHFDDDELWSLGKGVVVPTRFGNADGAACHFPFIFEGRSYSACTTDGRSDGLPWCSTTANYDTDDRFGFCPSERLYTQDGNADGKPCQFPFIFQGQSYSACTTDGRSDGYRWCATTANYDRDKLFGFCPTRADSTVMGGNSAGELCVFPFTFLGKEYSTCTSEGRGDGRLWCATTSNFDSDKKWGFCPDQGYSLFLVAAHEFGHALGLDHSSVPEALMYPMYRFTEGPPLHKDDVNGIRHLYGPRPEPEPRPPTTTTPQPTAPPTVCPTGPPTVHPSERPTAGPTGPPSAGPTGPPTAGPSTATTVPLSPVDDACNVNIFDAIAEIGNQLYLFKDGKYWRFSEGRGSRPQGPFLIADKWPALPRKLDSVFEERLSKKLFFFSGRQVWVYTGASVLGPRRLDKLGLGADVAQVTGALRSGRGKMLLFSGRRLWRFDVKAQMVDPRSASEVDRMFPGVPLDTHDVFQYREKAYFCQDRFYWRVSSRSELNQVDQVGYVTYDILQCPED
Method: Once surface-functionalized with the peptide and PEG, an experiment was performed in PBS in order to characterize the ability of MMP9 to cleave the peptide present on the nanoparticle surface. In this experiment, ^64Cu was chelated to DTPA on the peptide attached to the NP. The suspension was incubated with MMP9 for 1.5 hours and then the supernatant solution was separated from the NPs by centrifugal filtration. […] To further confirm the presence of the cleaved peptide, high performance liquid chromatography (HPLC) was performed on the supernatant solutions, and co-registered UV and radioactive peaks associated with the radiolabeled peptide fragment were observed (FIG. 6).
1 mL of peptide-functionalized gold NPs was centrifuged, supernatant decanted, and resuspended in 0.1 M NH4OAc. 110 μCi ^64Cu, provided by the Washington University Cyclotron Facility, was added to the NP pellet and shaken at 45° C. for 1 hour. Radiolabeled NPs were purified from nonchelated ^64Cu by centrifugation. Then NP suspensions were incubated with 20 ng MMP9 for 1.5 hours, after which 450 μL PBS was added and supernatant was purified from the NPs by centrifugation filtration using a 10 k MW filter. Supernatant and NP pellets were counted for radioactivity in a PerkinElmer 1480 Automatic Gamma Counter.

MDA-MB-231 cells = assay: Cell uptake and efflux studies; type: cell-based, human; settings: for cell uptake: untreated MDA-MB-231 cells, 2 h postincubation at 37° C.
Excerpt: The goals of the cell-uptake studies were to (1) assess any changes in the structure-activity relationship resulting from the modular and responsive probe design and (2) evaluate the retention of the iodine containing hydrophobic peptide moiety in treated and untreated cells. Metastatic human breast MDA-MB-231 cells were used to evaluate whether the amino acid sequence modulation would enhance internalization, and how the probe would respond (intracellular) postchemotherapy. In the untreated cells, there was a higher uptake (P<0.001) of [^125I]LS734 (3.6±0.5) than [^125I]LS370 (0.3±0.3) at 2 h postincubation at 37° C. (FIG. 22A). […] The amount of iodinated fraction released by the untreated and treated cells at 3 h (post 2 h incubation and removal of excess activity) was used as a measure of the efflux activity.
MDA-MB-231 cells used for the uptake and efflux assay were grown on 24-well tissue culture plates until they were 80-90% confluent with […] cells per well. […] The experimental treatment group of cells was treated with 10 ng/ml of SN-38 (7-ethyl-10-hydroxy-camptothecin, Sigma Aldrich) for 24 h. Then, the SN-38 was removed, and the second chemotherapeutic drug, UCN-01 (Sigma Aldrich), was introduced at a concentration of […] in 0.1% BSA per well. At this point, respective radioactive solutions ([^125I]LS734 or [^125I]LS370, 0.02 μg per well; specific activities: [^125I]LS370-40×10^6 MBq/mmol; [^125I]LS734-10×10^6 MBq/mmol) were added to treated and control groups. The solutions were added drop-wise into the wells and gently mixed to ensure homogeneous distribution. The final volume per well was 240 μl, and the plates were incubated at 37° C. (5% CO2) for 2 h. After incubation, the supernatant (fraction 1) was collected, and the cells were washed twice with 250 μl of cold serum-free media. […] Fraction 2 represents the cell efflux, which is the amount of radioactivity released from cells after the 2 h uptake. […] The radioactivity in each fraction was measured in a well counter (Packard II gamma counter).

[2] = Tissue biodistribution in tumor-bearing Balb/c mice; type: in vivo; settings: female, Balb/c, mouse, iv, 0.185 MBq, total radioactivity, 1 h post injection; for tissue uptake at 1 h: thyroid
Method: (§1) The structure-activity relationship was evaluated in vivo by performing a tissue biodistribution study in naive (FIG. 26) and tumor-bearing Balb/c mice (FIG. 23). […] The tumor/blood ratios for both [^125I]LS370 and [^125I]LS734 was 0.6±0.03. The tumor/muscle ratios were similar as well but higher than the tumor/blood ratios, [^125I]LS734 (2.2±0.1) and [^125I]LS370 (2.1±0.3). Thyroid uptake was 73±21 and 115±73 for [^125I]LS370 and [^125I]LS734, respectively.
(§2) All animal studies were conducted according to guidelines on the humane care and use of laboratory animals under protocols approved by the Animal Studies Committee at Washington University School of Medicine. For tissue biodistribution studies, syngeneic breast tumor models were prepared via bilateral orthotopic implantation of luciferase-transfected 4T1 mouse mammary carcinoma cells (4T1luc, 5×10^5 cells per tumor) in the mammary fat pads of 6-week-old, female Balb/c mice (NCI, Frederick, Md., USA). Studies were conducted when the tumors reached about 3 mm maximum diameter (−10 days). Healthy female Balb/c mice (n=4 per time point) were anesthetized with 1-2% vaporized isoflurane and injected via tail vein with 0.185 MBq of [^125I]LS370 or [^125I]LS734 (specific activities: [^125I]LS370-40×10^6 MBq/mmol; [^125I]LS734-10×10^6 MBq/mmol). At 1 h post injection, mice were killed. Organs of interest were removed and blotted dry. The radioactivity was measured in a gamma counter (Packard II gamma counter). Diluted standard doses (1:100) were prepared and counted along with the samples. Data points were corrected for radioactive decay. The percent injected dose per gram of tissue (% ID/g) was calculated.

4T1luc tumors = assay: as above; type: in vivo; settings: at 1 h after tail vein injection
Method: as §1, §2

MMP9 [3] = target: T2, MMP9; assay: In vitro MMP9 cleavage of ^111In from non-radioactive gold nanoparticle probe; type: biochemical
Method: (§3) To further validate the specificity of the activation, an identical experiment as the one just described was performed with an ^111In-labeled non-radioactive gold nanoparticle probe, similar to a radioactive nanoparticle previously reported. An initial in vitro validation was performed; when incubated with MMP9 for 48 hours, 48% ^111In was cleaved from the nanoparticle compared to only 16% without MMP9. With this singly-labeled probe, an alternative in vivo ratiometric imaging approach was performed (FIG. 18A). Rather than compare the ratio between two gamma energy channels, uptake intensity ratios between the lungs and kidneys or bladder were quantified. Importantly, clear distinctions were observed between the MMP9 and control groups. […] Differences were also observed 5 hours after injection (FIG. 18C), where the bladder/lung ratio remained elevated in the MMP9-incubated condition (0.19±0.15) compared to the control (0.03±0.003).
The dual-radiolabeled nanocrystal suspension was separated into 50 μL samples containing 20 ng MMP9 and incubated at 37° C. for 9 hours (along with control that was incubated without MMP9). 50 μL (˜80 μCi ^199Au and 40 μCi ^111In) was then intratracheally injected into C57 Black6 mice and two-channel SPECT imaging was performed as described above. […]

MMP9 [4] = target: T2, MMP9; assay: Organ ratiometric SPECT imaging (kidney/lung, bladder/lung) after MMP9 pre-incubation; type: in vivo, C57 Black6 mice
Method: as §3
The dual-radiolabeled nanocrystal suspension was separated into 50 μL samples containing 20 ng MMP9 and incubated at 37° C. for 9 hours (along with control that was incubated without MMP9). 50 μL (˜80 μCi ^199Au and 40 μCi ^111In) was then intratracheally injected into C57 Black6 mice and two-channel SPECT imaging was performed as described above. In another experiment, a similar protocol was performed with the non-radioactive gold NP core functionalized with an ^111In-labeled, MMP9-cleavable peptide. Briefly, 10 mL of 10 nm diameter gold nanoparticles (Sigma Aldrich) was centrifuged at 10 k g-force for 70 minutes, supernatant was removed, the pellet was resuspended in 1 mL of ultrapure water containing 2.2 mg mPEG-SH (MW=5000) and 1.0 mg pMMP9 peptide, and shaken overnight. Suspension was again centrifuged at 10 k g-force, supernatant removed, and the pellet was resuspended in 500 μL 0.1 M NH4OAc buffer (pH 5.5). Then 15 μL ^111InCl (5.23 mCi) was added and shaken at 45° C. for 90 minutes. Suspension was centrifuged at 10 k g-force for 90 minutes, supernatant removed, and the pellet containing 2.96 mCi was resuspended in 500 μL buffer. 50 μL aliquots with or without 10 ng MMP9 were prepared and shaken at 37° C. for 16 hours. 50 μL (˜230 μCi ^111In) was then intratracheally injected into C57 Black6 mice (n=4/group) and SPECT imaging was performed using the 245 keV channel immediately upon injection and 5 and 24 hours later.

[5] = MMP9-incubated probe, immediately upon injection
[6] = control probe without MMP9, immediately upon injection

CC(=O)N[C@@H](CC(=O)O)C(=O)N[C@@H](CCC(=O)O)C(=O)N[C@H](C(=O)N[C@@H](CC(=O)O)C(=O)Nc1ccc([N+](=O)[O-])cc1)C(C)C [Ac-DEVD (SEQ ID NO:2)-pNA, Ac-DEVD-pNA]
Km (caspase-3): 11 µM
kcat (caspase-3): 2.4 M/s

^64Cu-labeled nanoparticles ({DTPA′}-GPLGVRGKGYG[Ahx]C-NH2; not fully specified (residue 13); also: DTPA chelates 64Cu)
radioactivity observed in the supernatant after incubation with MMP9 (MMP9 [1]; […] incubation with MMP9, PBS, centrifugal filtration): 23%
radioactivity observed in the supernatant, control without MMP9 (MMP9 [1]; […], without MMP9): < 5%

CC(=O)NCCCCCC(=O)N[C@@H](Cc1ccc(O)c(I)c1)C(=O)NCCCCCC(=O)N[C@@H](CC(=O)O)C(=O)N[C@@H](CCC(=O)O)C(=O)N[C@H](C(=O)N[C@@H](CC(=O)O)C(=O)NCC(=O)N[C@@H](CCCCN)C(=O)NCC(=O)N[C@@H](CS)C(N)=O)C(C)C [[^125I]LS370] (Ac-[Ahx][Tyr(3-I)][Ahx]DEVDGKGC-NH2)
cell uptake (MDA-MB-231 cells): 0.3±0.3
tissue to tissue ratio at 1 h ([2]; 4T1luc tumor / blood, read-out: tumor/blood ratio): 0.6 ± 0.03
tissue to tissue ratio at 1 h ([2]; 4T1luc tumor / muscle, read-out: tumor/muscle ratio): 2.1 ± 0.3
tissue uptake at 1 h [2]: 73 ± 21 %ID/g

CC[C@H](C)[C@H](NC(=O)[C@H](C)NC(=O)[C@H](CC(C)C)NC(=O)[C@H](Cc1ccc(O)c(I)c1)NC(C)=O)C(=O)NCCCCCC(=O)N1CCC[C@H]1C(=O)N[C@@H](C)C(=O)N[C@@H](CC(=O)O)C(=O)N[C@@H](CCC(=O)O)C(=O)N[C@H](C(=O)N[C@@H](CC(=O)O)C(=O)NCC(=O)N[C@@H](CCCNC(=N)N)C(=O)N[C@@H](CCCNC(=N)N)C(=O)N[C@@H](CCCNC(=N)N)C(=O)N[C@@H](CCCN)C(=O)N[C@@H](CCCNC(=N)N)C(=O)N[C@@H](CCCNC(=N)N)C(=O)N[C@@H](CCCCN)C(=O)N[C@@H](CCCCN)C(=O)N[C@@H](CCCNC(=N)N)C(=O)N[C@@H](CCCCNC(=O)CN1CCN(CC(=O)O)CCN(CC(=O)O)CCN(CC(=O)O)CC1)C(N)=O)C(C)C [[^125I]LS734] (Ac-[Tyr(3-I)]LAI[Ahx]PADEVDGRRR[Orn]RRKKRK(DOTA)-NH2)
efflux activity: iodinated fraction released by untreated versus treated cells (MDA-MB-231 cells; at 3 h (post 2 h incubation and removal of excess activity), treatment SN-38 then UCN-01): higher amount of activity was released from untreated cells compared to treated cells
cell uptake (MDA-MB-231 cells): 3.6±0.5
tissue uptake at 1 h [2]: 115 ± 73 %ID/g
blood circulation (4T1luc tumors): circulated longer in blood as compared to [^125I]LS370

^111In-labeled non-radioactive gold nanoparticle probe ({DTPA′}-GPLGVRGKGYG[Ahx]C-NH2; not fully specified (residue 13); printed as Gly-Pro-Leu-Gly-Val-Arg-Gly-Lys-Gly-Tyr-Gly-Ahx-Cys; also: 111In chelated by DTPA, Cys thiol anchored to gold nanoparticle)
^111In cleaved from the nanoparticle (MMP9 [3]; incubated with MMP9 for 48 hours): 48%
^111In cleaved from the nanoparticle (MMP9 [3]; without MMP9): 16%
bladder/lung uptake ratio (MMP9 [4]; MMP9-incubated probe, 5 hours after injection): 0.19±0.15
bladder/lung uptake ratio (MMP9 [4]; [5]): 0.56±0.24
kidney/lung uptake ratio (MMP9 [4]; [5]): 0.12±0.04
bladder/lung uptake ratio (MMP9 [4]; control probe without MMP9, 5 hours after injection): 0.03±0.003
bladder/lung uptake ratio (MMP9 [4]; [6]): 0.08±0.04
kidney/lung uptake ratio (MMP9 [4]; [6]): 0.01±0.004
